In the Kinase Knowledgebase extract (Sharma et al. 2016):
pIC50: −log10 of the molar value.

Molecular target: EGFR (mouse) (UniProt P00533)
Details: swiss 3t3 membrane

SMILES: N#C/C(=C\c1c[nH]c2ccccc12)C(=O)c1ccc(O)c(O)c1
- pIC50: 4.52

SMILES: COc1ccc(OC)c2nc(Cl)c(-c3ccccc3)cc12
- pIC50: < 4.52

SMILES: N#CC(C#N)=C(N)/C(C#N)=C/c1c[nH]c2ccccc12
- pIC50: < 3.52
